Reference: patent publication US10906889B2, “Polycyclic inhibitors of cyclin-dependent kinase 7 (CDK7)” (Dana-Farber Cancer Institute, Inc., priority 2013, dated 2021)
Where two headings read alike, the source gives them in different places.

Tests used:
[1] = target: CDK9/cyclin K (Homo sapiens, UniProt P50750); assay: LanthaScreen Eu kinase assay (Life Technologies), CDK9/cyclin K
Procedure: (§1) Compounds of the invention were assayed for activity against a variety of different kinases at Life Technologies™ (Grand Island, N.Y.) using their commercially available Adapta® (for CDK7, CDK9/cyclin T1, and IRAK1 kinases), Z′-Lyte® (for CDK1, CDK2, CDK5/p25, CDK5/p35, JNK1 and JNK2 kinases), and LanthaScreen Eu® (for CDK8, CDK9/cyclin K and MLK3) kinase assay services. Test compounds were tested at 100 nM and 1 μM final concentrations in 1% DMSO against all kinases except CDK7. For CDK7, test compounds were tested at concentrations ranging from 10 μM to 0.514 nM in a series of 3-fold serial dilutions. […] The co-factors used for each kinase in the assays were as follows: CDK1: cyclin B; CDK2: cyclin A; CDK5: p25 or p35 as indicated; CDK7: cyclin H and MNAT1; CDK8: cyclin C; CDK9: cyclin K or cyclin T1 as indicated; IRAK1: Histone H3 (1-20) peptide; JNK1: none required; JNK2: none required; MLK3: none required.

[2] = target: CDK9/cyclin T1 (Homo sapiens, UniProt P50750); assay: Adapta kinase assay (Life Technologies), CDK9/cyclin T1; conditions: for inhibition at 0.1 µM: read-out: CDK9^a,e percent inhibition; for inhibition at 1 µM: read-out: CDK9^b,e percent inhibition
Procedure: as §1

[3] = target: T1, CDK2 (Homo sapiens, UniProt P24941); assay: Z'-Lyte kinase assay (Life Technologies), CDK2; assay type: biochemical; conditions: co-factor cyclin A; for inhibition at 0.1 µM: compound tested at 100 nM, read-out: CDK2^a percent inhibition; for inhibition at 1 µM: compound tested at 1 μM, read-out: CDK2^b percent inhibition
T1 construct: purchased Life Technologies (assay service)

[4] = target: CDK5/p25 (Homo sapiens, UniProt Q00535); assay: Z'-Lyte kinase assay (Life Technologies), CDK5/p25; conditions: for inhibition at 0.1 µM: read-out: CDK5^a,c percent inhibition; for inhibition at 1 µM: read-out: CDK5^b,c percent inhibition
Procedure: as §1

[5] = target: T2, CDK7 (Homo sapiens, UniProt P50613); assay: Adapta kinase assay (Life Technologies), CDK7; assay type: biochemical
T2 construct: purchased Life Technologies (assay service)

[6] = target: T3, CDK8 (Homo sapiens, UniProt P49336); assay: LanthaScreen Eu kinase assay (Life Technologies), CDK8; assay type: binding; conditions: co-factor cyclin C; for inhibition at 0.1 µM: compound tested at 100 nM, read-out: CDK8^a percent inhibition; for inhibition at 1 µM: compound tested at 1 μM, read-out: CDK8^b percent inhibition
T3 construct: purchased Life Technologies (assay service)

[7] = test system: T47D; assay: Cell proliferation (CellTiter-Glo, 72 hour), T47D; assay type: cell-based; conditions: Homo sapiens, breast cancer cell line, read-out: T47D inhibition of proliferation (IC50)
[8] = test system: SAOS; assay: Cell proliferation (CellTiter-Glo, 72 hour), SAOS; assay type: cell-based; conditions: osteosarcoma cell line, read-out: SAOS inhibition of proliferation (IC50)
[9] = target: CDK5/p35 (Homo sapiens, UniProt Q00535); assay: Z'-Lyte kinase assay (Life Technologies), CDK5/p35; conditions: for inhibition at 0.1 µM: read-out: CDK5^a,d percent inhibition; for inhibition at 1 µM: read-out: CDK5^b,d percent inhibition
Procedure: as §1

[10] = test system: SK-ES-1; assay: Cell proliferation (CellTiter-Glo, 72 hour), SK-ES-1; assay type: cell-based; conditions: Homo sapiens, SK-ES1, Ewing's sarcoma cell line, read-out: SK-ES-1 inhibition of proliferation (IC50)
[11] = target: T4, JNK2 (Homo sapiens, UniProt P45984); assay: Z'-Lyte kinase assay (Life Technologies), JNK2; assay type: biochemical; conditions: for inhibition at 0.1 µM: compound tested at 100 nM, read-out: JNK2^a percent inhibition; for inhibition at 1 µM: compound tested at 1 μM, read-out: JNK2^b percent inhibition
T4 construct: purchased Life Technologies (assay service)

[12] = target: T5, CDK1 (Homo sapiens, UniProt P06493); assay: Z'-Lyte kinase assay (Life Technologies), CDK1; assay type: biochemical; conditions: co-factor cyclin B; for inhibition at 0.1 µM: compound tested at 100 nM, read-out: CDK1^a percent inhibition; for inhibition at 1 µM: compound tested at 1 μM, read-out: CDK1^b percent inhibition
T5 construct: purchased Life Technologies (assay service)

[13] = test system: 143B; assay: Cell proliferation (CellTiter-Glo, 72 hour), 143B; assay type: cell-based; conditions: Homo sapiens, osteosarcoma cell line, read-out: 143B inhibition of proliferation (IC50)
[14] = test system: RD-ES; assay: Cell proliferation (CellTiter-Glo, 72 hour), RD-ES; assay type: cell-based; conditions: Ewing's sarcoma cell line, read-out: RD-ES inhibition of proliferation (IC50)
[15] = test system: MNNG-HOS Cl #5; assay: Cell proliferation (CellTiter-Glo, 72 hour), MNNG-HOS Cl #5; assay type: cell-based; conditions: osteosarcoma cell line, read-out: MNNG-HOS Cl#5 inhibition of proliferation (IC50)
[16] = test system: MDA-MB231; assay: Cell proliferation (CellTiter-Glo, 72 hour), MDA-MB231; assay type: cell-based; conditions: Homo sapiens, MDA-MB-231, breast cancer cell line, read-out: MDA-MB231 inhibition of proliferation (IC50)
[17] = test system: RS4-11; assay: Cell proliferation (CellTiter-Glo, 72 hour), RS4-11; assay type: cell-based; conditions: Homo sapiens, blood cancer cell line, read-out: RS4-11 inhibition of proliferation (IC50)
[18] = target: T6, MLK3 (Homo sapiens, UniProt Q16584); assay: LanthaScreen Eu kinase assay (Life Technologies), MLK3; assay type: binding; conditions: for IC50: Table 2, read-out: MLK3 (calculated IC50); for inhibition at 0.1 µM: compound tested at 100 nM, read-out: MLK3^a percent inhibition
T6 construct: purchased Life Technologies (assay service)

[19] = target: T7, JNK1 (Homo sapiens, UniProt P45983); assay: Z'-Lyte kinase assay (Life Technologies), JNK1; assay type: biochemical; conditions: for inhibition at 0.1 µM: compound tested at 100 nM, read-out: JNK1^a percent inhibition; for inhibition at 1 µM: compound tested at 1 μM, read-out: JNK1^b percent inhibition
T7 construct: purchased Life Technologies (assay service)

[20] = test system: HL60; assay: Cell proliferation (CellTiter-Glo, 72 hour), HL60; assay type: cell-based; conditions: Homo sapiens, HL-60, blood cancer cell line, read-out: HL60 inhibition of proliferation (IC50)
[21] = test system: SKBR3; assay: Cell proliferation (CellTiter-Glo, 72 hour), SKBR3; assay type: cell-based; conditions: Homo sapiens, SK-BR-3, breast cancer cell line, read-out: SKBR3 inhibition of proliferation (IC50)
[22] = test system: A673; assay: Cell proliferation (CellTiter-Glo, 72 hour), A673; assay type: cell-based; conditions: Homo sapiens, Ewing's sarcoma cell line, read-out: A673 inhibition of proliferation (IC50)
[23] = test system: hTERT-HME1; assay: Cell proliferation (CellTiter-Glo, 72 hour), hTERT-HME1; assay type: cell-based; conditions: breast cancer cell lines table, read-out: hTERT-HME1 inhibition of proliferation (IC50)
[24] = test system: MCF7; assay: Cell proliferation (CellTiter-Glo, 72 hour), MCF7; assay type: cell-based; conditions: Homo sapiens, breast cancer cell line, read-out: MCF7 inhibition of proliferation (IC50)
[25] = test system: MCF10A; assay: Cell proliferation (CellTiter-Glo, 72 hour), MCF10A; assay type: cell-based; conditions: Homo sapiens, MCF-10A, breast cancer cell lines table, read-out: MCF10A inhibition of proliferation (IC50)
[26] = test system: MV4-11; assay: Cell proliferation (CellTiter-Glo, 72 hour), MV4-11; assay type: cell-based; conditions: Homo sapiens, blood cancer cell line, read-out: MV4-11 inhibition of proliferation (IC50)
[27] = test system: Jurkat cells; assay: Cell proliferation (CellTiter-Glo, 72 hour), Jurkat; assay type: cell-based; conditions: Homo sapiens, blood cancer cell line
[28] = test system: Hs822T; assay: Cell proliferation (CellTiter-Glo, 72 hour), Hs822T; assay type: cell-based; conditions: Ewing's sarcoma cell line, read-out: Hs822T inhibition of proliferation (IC50)
[29] = test system: Hs863T; assay: Cell proliferation (CellTiter-Glo, 72 hour), Hs863T; assay type: cell-based; conditions: Ewing's sarcoma cell line, read-out: Hs863T inhibition of proliferation (IC50)
[30] = target: T8, IRAK1 (Homo sapiens, UniProt P51617); assay: Adapta kinase assay (Life Technologies), IRAK1; assay type: biochemical; conditions: for inhibition at 0.1 µM: compound tested at 100 nM, read-out: IRAK1^a percent inhibition; for inhibition at 1 µM: compound tested at 1 μM, read-out: IRAK1^b percent inhibition
T8 construct: purchased Life Technologies (assay service)

[31] = test system: THP-1; assay: Cell proliferation (CellTiter-Glo, 72 hour), THP-1; assay type: cell-based; conditions: Homo sapiens, blood cancer cell line, read-out: THP-1 inhibition of proliferation (IC50)
[32] = Table 1C, co-factors cyclin H and MNAT1, read-out: CDK7 IC50
[33] = Table 2, co-factors cyclin H and MNAT1, read-out: CDK7 (calculated IC50)

T4 sequence (P45984 whole entry): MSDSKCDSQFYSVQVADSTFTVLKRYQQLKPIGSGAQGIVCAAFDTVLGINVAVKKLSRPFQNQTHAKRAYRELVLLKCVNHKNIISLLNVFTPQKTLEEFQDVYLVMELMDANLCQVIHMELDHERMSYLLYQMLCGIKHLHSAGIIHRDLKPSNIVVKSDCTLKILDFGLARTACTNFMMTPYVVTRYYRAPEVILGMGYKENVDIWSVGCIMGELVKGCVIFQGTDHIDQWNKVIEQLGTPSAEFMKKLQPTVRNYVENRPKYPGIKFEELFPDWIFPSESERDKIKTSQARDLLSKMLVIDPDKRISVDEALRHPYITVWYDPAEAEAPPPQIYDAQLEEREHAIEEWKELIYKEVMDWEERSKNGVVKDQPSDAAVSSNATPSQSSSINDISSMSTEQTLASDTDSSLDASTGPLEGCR
T3 sequence (P49336 whole entry): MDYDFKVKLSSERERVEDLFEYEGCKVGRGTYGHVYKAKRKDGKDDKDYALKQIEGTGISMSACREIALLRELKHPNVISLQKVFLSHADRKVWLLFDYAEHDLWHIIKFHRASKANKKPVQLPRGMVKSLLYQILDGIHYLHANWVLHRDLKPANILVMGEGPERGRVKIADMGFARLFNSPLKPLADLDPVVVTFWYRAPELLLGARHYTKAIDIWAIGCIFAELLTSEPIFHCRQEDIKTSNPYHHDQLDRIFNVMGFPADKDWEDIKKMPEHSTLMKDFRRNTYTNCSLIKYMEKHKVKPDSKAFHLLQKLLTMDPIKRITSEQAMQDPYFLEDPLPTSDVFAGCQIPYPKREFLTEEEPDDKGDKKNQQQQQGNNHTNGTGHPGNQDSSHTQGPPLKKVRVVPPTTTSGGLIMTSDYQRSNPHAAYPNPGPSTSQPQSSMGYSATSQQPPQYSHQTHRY
T3 sequence (P24863 whole entry partner): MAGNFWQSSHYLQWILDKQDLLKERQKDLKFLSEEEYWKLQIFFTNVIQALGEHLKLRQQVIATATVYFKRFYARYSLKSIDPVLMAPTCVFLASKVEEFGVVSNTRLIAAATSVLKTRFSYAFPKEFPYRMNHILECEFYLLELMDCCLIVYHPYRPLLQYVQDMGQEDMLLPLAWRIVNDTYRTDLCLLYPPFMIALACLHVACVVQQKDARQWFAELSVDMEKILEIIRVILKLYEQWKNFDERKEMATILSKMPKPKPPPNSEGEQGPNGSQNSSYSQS
T6 sequence (Q16584 whole entry): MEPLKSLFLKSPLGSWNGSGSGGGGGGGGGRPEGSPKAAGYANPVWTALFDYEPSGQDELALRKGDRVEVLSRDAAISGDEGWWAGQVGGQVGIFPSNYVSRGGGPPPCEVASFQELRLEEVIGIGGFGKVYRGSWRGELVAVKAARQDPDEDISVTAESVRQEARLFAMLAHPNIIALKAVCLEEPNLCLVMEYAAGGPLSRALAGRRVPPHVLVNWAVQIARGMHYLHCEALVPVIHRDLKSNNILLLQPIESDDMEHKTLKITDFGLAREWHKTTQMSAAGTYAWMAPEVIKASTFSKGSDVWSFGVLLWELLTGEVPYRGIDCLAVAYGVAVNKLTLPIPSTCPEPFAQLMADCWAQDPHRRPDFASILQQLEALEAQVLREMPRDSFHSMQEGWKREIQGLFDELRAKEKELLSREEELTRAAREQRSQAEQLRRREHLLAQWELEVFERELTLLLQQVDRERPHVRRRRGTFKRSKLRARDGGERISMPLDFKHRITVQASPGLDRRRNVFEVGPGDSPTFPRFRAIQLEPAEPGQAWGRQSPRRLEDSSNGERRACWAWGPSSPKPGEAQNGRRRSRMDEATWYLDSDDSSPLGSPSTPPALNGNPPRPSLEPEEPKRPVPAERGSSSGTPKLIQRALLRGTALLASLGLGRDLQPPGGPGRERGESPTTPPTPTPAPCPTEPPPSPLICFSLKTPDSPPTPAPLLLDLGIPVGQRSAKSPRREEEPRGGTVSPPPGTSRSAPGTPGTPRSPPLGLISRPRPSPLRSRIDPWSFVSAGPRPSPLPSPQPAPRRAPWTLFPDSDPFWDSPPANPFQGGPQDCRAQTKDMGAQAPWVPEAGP
Chain of CDK5/p25 (Q00535 whole entry): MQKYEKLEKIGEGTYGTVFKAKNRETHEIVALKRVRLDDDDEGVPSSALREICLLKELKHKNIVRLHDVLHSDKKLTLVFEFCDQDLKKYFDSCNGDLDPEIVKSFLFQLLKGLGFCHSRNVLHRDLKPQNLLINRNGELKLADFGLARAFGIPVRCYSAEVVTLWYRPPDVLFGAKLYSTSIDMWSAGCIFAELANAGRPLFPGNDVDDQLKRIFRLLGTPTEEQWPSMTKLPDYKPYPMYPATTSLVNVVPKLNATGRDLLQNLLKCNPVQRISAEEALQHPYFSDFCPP
Chain of CDK5/p25 (Q15078 99-307 partner limits assumed): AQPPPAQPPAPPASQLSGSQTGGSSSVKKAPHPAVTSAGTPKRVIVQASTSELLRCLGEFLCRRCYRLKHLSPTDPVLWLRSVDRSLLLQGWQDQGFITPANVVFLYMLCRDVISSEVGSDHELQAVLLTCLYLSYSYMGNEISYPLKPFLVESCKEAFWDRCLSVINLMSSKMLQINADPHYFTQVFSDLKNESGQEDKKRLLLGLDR
Chain of CDK5/p35 (Q00535 whole entry): as the sequence (Q00535 whole entry) above
Chain of CDK5/p35 (Q15078 whole entry partner): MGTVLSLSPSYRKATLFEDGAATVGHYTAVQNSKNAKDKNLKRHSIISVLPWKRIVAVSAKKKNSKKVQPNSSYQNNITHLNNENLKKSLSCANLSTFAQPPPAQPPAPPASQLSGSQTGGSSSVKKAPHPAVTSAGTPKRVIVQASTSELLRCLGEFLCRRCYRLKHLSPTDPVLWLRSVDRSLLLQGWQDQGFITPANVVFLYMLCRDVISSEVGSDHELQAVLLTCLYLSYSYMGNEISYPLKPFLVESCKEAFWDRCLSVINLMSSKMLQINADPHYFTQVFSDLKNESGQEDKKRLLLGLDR
T2 sequence (P50613 whole entry): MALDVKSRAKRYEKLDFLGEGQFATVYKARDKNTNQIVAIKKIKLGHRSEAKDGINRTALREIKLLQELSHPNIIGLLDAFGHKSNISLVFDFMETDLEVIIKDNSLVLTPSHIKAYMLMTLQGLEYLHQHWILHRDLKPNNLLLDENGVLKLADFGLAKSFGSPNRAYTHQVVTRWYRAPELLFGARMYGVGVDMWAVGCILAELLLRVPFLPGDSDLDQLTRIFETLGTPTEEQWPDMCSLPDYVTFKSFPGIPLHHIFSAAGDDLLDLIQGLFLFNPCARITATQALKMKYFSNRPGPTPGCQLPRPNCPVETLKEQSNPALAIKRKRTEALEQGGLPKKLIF
T2 sequence (P51946 whole entry partner): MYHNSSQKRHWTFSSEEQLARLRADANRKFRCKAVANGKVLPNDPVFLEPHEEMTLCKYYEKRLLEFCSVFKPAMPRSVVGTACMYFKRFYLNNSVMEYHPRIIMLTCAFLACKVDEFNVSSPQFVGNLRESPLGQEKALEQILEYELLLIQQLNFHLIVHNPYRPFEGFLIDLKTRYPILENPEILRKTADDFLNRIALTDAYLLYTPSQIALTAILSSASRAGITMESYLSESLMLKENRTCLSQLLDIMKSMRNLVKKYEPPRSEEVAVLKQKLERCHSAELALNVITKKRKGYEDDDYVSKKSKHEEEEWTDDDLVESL
T2 sequence (P51948 whole entry partner): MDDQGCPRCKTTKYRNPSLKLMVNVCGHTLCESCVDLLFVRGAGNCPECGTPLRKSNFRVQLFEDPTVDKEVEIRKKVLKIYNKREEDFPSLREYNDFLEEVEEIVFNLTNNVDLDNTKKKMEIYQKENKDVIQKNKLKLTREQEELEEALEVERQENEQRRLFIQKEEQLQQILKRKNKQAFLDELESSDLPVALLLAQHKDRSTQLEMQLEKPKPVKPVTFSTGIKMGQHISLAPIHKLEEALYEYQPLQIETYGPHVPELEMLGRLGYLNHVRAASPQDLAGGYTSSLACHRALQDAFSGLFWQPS
T5 sequence (P06493 whole entry): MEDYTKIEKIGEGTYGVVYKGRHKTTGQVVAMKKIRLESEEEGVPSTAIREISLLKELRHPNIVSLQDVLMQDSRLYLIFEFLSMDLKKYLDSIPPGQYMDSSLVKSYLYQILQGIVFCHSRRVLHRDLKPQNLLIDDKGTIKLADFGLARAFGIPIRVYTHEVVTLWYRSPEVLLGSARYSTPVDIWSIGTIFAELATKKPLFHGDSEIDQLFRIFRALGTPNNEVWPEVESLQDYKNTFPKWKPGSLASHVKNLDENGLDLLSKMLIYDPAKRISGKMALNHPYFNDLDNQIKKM
T5 sequence (P14635 whole entry partner): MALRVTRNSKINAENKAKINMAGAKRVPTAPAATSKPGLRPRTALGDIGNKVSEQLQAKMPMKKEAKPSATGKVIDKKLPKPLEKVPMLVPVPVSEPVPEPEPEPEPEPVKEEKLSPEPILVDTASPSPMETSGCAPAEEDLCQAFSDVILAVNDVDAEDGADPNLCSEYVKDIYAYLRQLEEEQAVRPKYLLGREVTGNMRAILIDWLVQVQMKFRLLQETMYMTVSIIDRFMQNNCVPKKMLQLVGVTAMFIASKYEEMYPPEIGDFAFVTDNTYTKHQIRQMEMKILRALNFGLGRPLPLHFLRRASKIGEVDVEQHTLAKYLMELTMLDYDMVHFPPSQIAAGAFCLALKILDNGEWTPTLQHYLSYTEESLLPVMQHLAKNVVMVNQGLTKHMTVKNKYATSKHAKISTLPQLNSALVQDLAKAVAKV

## CN(C)C/C=C/C(=O)Nc1ccc(C(=O)NC2CCCC(Nc3ncc(Cl)c(-c4c[nH]c5ccccc45)n3)C2)cc1 (stereo not shown) [Compound 100, (E)-N-(3-((5-chloro-4-(1H-indol-3-yl)pyrimidin-2-yl)amino)cyclohexyl)-4-(4-(dimethylamino)but-2-enamido)benzamide]
[1]
  IC50: 0.1 to 1 µM
[2]
  IC50: 0.1 to 1 µM
[3]; Table 2, read-out: CDK2 (calculated IC50)
  IC50: > 1 µM
[4]
  IC50: > 1 µM
[5]; [32]
  IC50: < 0.1 µM
[5]; [33]
  IC50: < 0.1 µM
[6]; Table 2, read-out: CDK8 (calculated IC50)
  IC50: 0.1 to 1 µM

## CN(C)C/C=C/C(=O)Nc1ccc(C(=O)N[C@H]2CCC[C@@H](Nc3ncc(Cl)c(-c4c[nH]c5ccccc45)n3)C2)cc1 [Compound 102, N-((1S,3R)-3-(5-chloro-4-(1H-indol-3-yl)pyrimidin-2-ylamino)cyclohexyl)-4-((E)-4-(dimethylamino)but-2-enamido)benzamide]
[7]
  IC50: > 5 µM
[8]
  IC50: < 0.5 µM
[9]
  inhibition at 0.1 µM: < 50%
  inhibition at 1 µM: < 50%
[10]
  IC50: < 0.5 µM
[11]
  inhibition at 0.1 µM: < 50%
  inhibition at 1 µM: 50 to 70%
[2]
  inhibition at 0.1 µM: < 50%
  inhibition at 1 µM: < 50%
[12]
  inhibition at 0.1 µM: < 50%
  inhibition at 1 µM: < 50%
[13]
  IC50: > 5 µM
[14]
  IC50: < 0.5 µM
[15]
  IC50: > 5 µM
[16]
  IC50: < 0.5 µM
[17]
  IC50: < 0.5 µM
[18]
  IC50: > 1 µM
  inhibition at 0.1 µM: < 50%
[19]
  inhibition at 0.1 µM: < 50%
  inhibition at 1 µM: 50 to 70%
[20]
  IC50: < 0.5 µM
[21]
  IC50: > 5 µM
[22]
  IC50: < 0.5 µM
[23]
  IC50: < 0.5 µM
[24]
  IC50: > 5 µM
[25]
  IC50: < 0.5 µM
[3]
  inhibition at 0.1 µM: < 50%
  inhibition at 1 µM: < 50%
[26]
  IC50: < 0.5 µM
[4]
  IC50: > 1 µM
  inhibition at 0.1 µM: < 50%
  inhibition at 1 µM: < 50%
[27]
  IC50: < 0.5 µM
[5]; [32]
  IC50: < 0.1 µM
[5]; [33]
  IC50: < 0.1 µM
[28]
  IC50: > 5 µM
[29]
  IC50: > 5 µM
[30]
  inhibition at 0.1 µM: < 50%
  inhibition at 1 µM: < 50%
[6]
  inhibition at 0.1 µM: < 50%
  inhibition at 1 µM: < 50%
[31]
  IC50: < 0.5 µM

## CN(C)C/C=C/C(=O)Nc1ccc(C(=O)N[C@H]2CCC[C@H](Nc3ncc(Cl)c(-c4c[nH]c5ccccc45)n3)C2)cc1 [compound 103]
[7]
  IC50: > 5 µM
[8]
  IC50: 0.5 to 5 µM
[9]
  inhibition at 0.1 µM: < 50%
  inhibition at 1 µM: < 50%
[10]
  IC50: 0.5 to 5 µM
[11]
  inhibition at 0.1 µM: < 50%
  inhibition at 1 µM: > 70%
[2]
  inhibition at 0.1 µM: < 50%
  inhibition at 1 µM: 50 to 70%
[12]
  inhibition at 0.1 µM: < 50%
  inhibition at 1 µM: < 50%
[13]
  IC50: > 5 µM
[14]
  IC50: 0.5 to 5 µM
[15]
  IC50: > 5 µM
[16]
  IC50: 0.5 to 5 µM
[17]
  IC50: 0.5 to 5 µM
[18]
  IC50: > 1 µM
  inhibition at 0.1 µM: < 50%
[19]
  inhibition at 0.1 µM: < 50%
  inhibition at 1 µM: 50 to 70%
[20]
  IC50: 0.5 to 5 µM
[21]
  IC50: > 5 µM
[22]
  IC50: < 0.5 µM
[23]
  IC50: 0.5 to 5 µM
[24]
  IC50: 0.5 to 5 µM
[25]
  IC50: < 0.5 µM
[3]
  inhibition at 0.1 µM: < 50%
  inhibition at 1 µM: < 50%
[26]
  IC50: < 0.5 µM
[4]
  IC50: > 1 µM
  inhibition at 0.1 µM: < 50%
  inhibition at 1 µM: < 50%
[27]
  IC50: 0.5 to 5 µM
[5]; [32]
  IC50: 0.1 to 1 µM
[5]; [33]
  IC50: 0.1 to 1 µM
[28]
  IC50: > 5 µM
[29]
  IC50: > 5 µM
[30]
  inhibition at 0.1 µM: < 50%
  inhibition at 1 µM: < 50%
[6]
  inhibition at 0.1 µM: < 50%
  inhibition at 1 µM: < 50%
[31]
  IC50: 0.5 to 5 µM
